Reference: US10017741B2, “Compositions and methods for obtaining enriched mesenchymal stem cell cultures” (StemCell Technologies Inc., priority 2013, dated 2018)
“And” between values parts separate entries of the source, which are not always exact repeats. Equal entries are not always repeated. “Also recorded” adds a separate entry of the source.

What was measured:
[1] = test system: 26 other kinases; conditions: cited from earlier work
[2] = test system: CB-derived cultures (macrophage contamination, MSC morphology); assay: Images of CB-derived expansion cultures; assay type: cell-based, mouse; conditions: for macrophage contamination and MSC enrichment (images): CB
Description: (§1) c. Expansion of Human BM and Mouse BM and CB-Derived Cells Assay • 1. […] Cultures were allowed to grow for 10-14 days until adherent cells achieved 70 to 80% confluence. Mouse cultures were maintained under normal (5% CO2) or hypoxic conditions (5% CO2/5% O2) at 37 C in a cell culture incubator. Human cultures were maintained under 5% CO2 at 37 C in a humidified cell culture incubator. • 3. Adherent cells were passaged by releasing cultures from flask. Cultures were washed with 5 mL PBS and then 5 mL of 0.25% trypsin solution ([…] catalogue #07901) was added and the flasks incubated for 10 min at 37 C. To each flask, 5 mL complete medium was added to stop trypsin activity. • 4. Released cells were collected into a tube and centrifuged at 300×g for 5 minutes. • 5. Cells were resuspended in 2 mL of medium and counted using a hemocytometer. • 6. […] P1 cultures were incubated until they reached 70 to 80% confluence. • 8. Passaged cultures can be used at any time from P0 to P10 as needed for different applications.

[3] = test system: BM-MSCs (CD45−/CD29+/Sca1+); assay: Total cell count with flow cytometry, BM-MSC cultures; assay type: cell-based, mouse
Description: (§2) d. Flow Cytometry Analysis • 1. Cultures of BM and CB-derived cells were trypsinized for 10 minutes and an equal volume of complete medium was added to cultures to stop trypsin activity • 2. Cell suspension was filtered through a 40 μm strainer, and cells counted using a hemocytometer • 3. Suspension was spun down at 300×g for 5 minutes. • 4. Supernatant was removed and cell pellet resuspended in FACS buffer (PBS with 2% FBS and 1 mM EDTA) • 5. A total of 1×10^5 cells in 300 μL FACS buffer was used for each flow cytometry analysis tube, including unstained, viability, compensation, and isotype controls. • 6. Cell suspensions were stained with fluorophore-labeled antibodies against CD45, CD11b, and Sca1, CD29, and viability dye. • 7. Cell suspensions were analyzed on a flow cytometer using compensation and isotype control to determine laser voltage and gating. • 8. Samples were gated on viable CD45^+ cells and 10,000 events per sample were collected. Alternatively, cells were gated on viable CD45^− cells and out of this gate the proportion of CD29+/Sca1^+ cells obtained.
Prior to flow cytometry, control and GW2580-treated cultures of BM- and CB-MSC were dissociated from tissue culture flasks by trypsinization and the total number of cells counted with the aid of a hemocytometer. Flow cytometry analysis was performed and the ratio of CD45^− cells and CD45^−/CD29^+/Sca1^+ cells applied to the total number of cells to obtain the actual number of these cells in culture (Table 2).

[4] = test system: human BM-derived MSCs; assay: Adipogenic and osteogenic differentiation of human BM-derived MSCs; assay type: cell-based; conditions: human BM-MSC expanded to P2 in 1 μM, 3 weeks differentiation, Oil red O / silver nitrate
Description: as §1
BM-derived cultures were isolated as described above and expansion assays setup as described above. […] At the end of P2, cell were dissociated by trypsin digestion and replated at 3×10^4 cells/cm^2 in 12-well plates for differentiation assays. Differentiation cultures were maintained for 3 weeks in adipogenic or osteogenic differentiation media. […]

[5] = test system: mouse CB-derived cells (MSC colonies); assay: Mouse CB-derived CFU-F assay; assay type: cell-based; conditions: 14 days
Description: a. Mouse BM and CB-Derived CFU-F Assay • 1. […] Medium was removed cultures washed with 2 mL PBS. • 4. Cells were fixed by adding 2 mL methanol/well and incubated at room temperature for 5 minutes. • 5. Methanol was removed and plates allowed to air dry for 5 minutes. • 6. To each well, 2 mL Toluidine blue solution was added and incubated for 30 minutes at room temperature. • 7. Toluidine blue solution was removed and wells rinsed with water. • 8. Water was removed and plates allowed to dry. • 9. Colony formation was assessed by enumeration and colony size. Mouse CB-derived cells were isolated as described previously and CFU-F assays setup as described above. […] Cultures were then stained with Toluidine blue and colony formation and appearance assessed. Three independent assays CFU-F assays for both BM- and CB-MSC were setup as in Example 4a and 4b. […] These assays were maintained for 14 days without media change. At the end of day 14, cultures were fixed and stained with toluidine blue and the number of MSC colonies counted.

[6] = test system: BM-derived cultures (CD45+/CD11b+ macrophages, Sca1+ monocytes); assay: Flow cytometry of BM-derived expansion cultures; assay type: cell-based, mouse
Description: as §1, §2

[7] = test system: mouse CB-MSC cultures; assay: Osteogenic and adipogenic differentiation of mouse CB-MSC; assay type: cell-based
[8] = test system: mouse myeloid cells; conditions: at 700 nM; cited from earlier work
[9] = BM-MSCs, 2.5 uM GW2580, 14 days during P0
[10] = CB-MSC, assay 1, 1 uM GW2580, 1.0 × 10^5 cells plated
[11] = CB-MSC, assay 1, 1 uM GW2580, 2.5 × 10^5 cells plated
[12] = CB-MSC, assay 1, 1 uM GW2580, 5.0 × 10^4 cells plated
[13] = CB-MSC, assay 1, 1 uM GW2580, Sum of the three densities
[14] = CB-MSC, assay 2, 2.5 uM GW2580, 1.0 × 10^6 cells plated
[15] = CB-MSC, assay 2, 2.5 uM GW2580, 2.5 × 10^5 cells plated
[16] = CB-MSC, assay 2, 2.5 uM GW2580, 5.0 × 10^5 cells plated
[17] = CB-MSC, assay 2, 2.5 uM GW2580, Sum of the three densities
[18] = CB-MSC, assay 3, 2.5 uM GW2580, 1.0 × 10^6 cells plated
[19] = CB-MSC, assay 3, 2.5 uM GW2580, 2.5 × 10^5 cells plated
[20] = CB-MSC, assay 3, 2.5 uM GW2580, 5.0 × 10^5 cells plated
[21] = CB-MSC, assay 3, 2.5 uM GW2580, Sum of the three densities

Structure (SMILES): COc1ccc(COc2ccc(Cc3cnc(N)nc3N)cc2OC)cc1 [GW2580, 5-(3-Methoxy-4-((4-methoxybenzyl)oxy)benzyl)pyrimidine-2,4-diamine]
- activity against 26 other kinases tested [1]: inactive
- macrophage contamination and MSC enrichment (images) ([2]; 1 μM continuous P0-P3): have reduced numbers of macrophages; also recorded: contain a much reduced number of these contaminating macrophages
- macrophage contamination and MSC enrichment (images) ([2]; 1 μM, P2): a much reduced number of macrophages is observed; also recorded: enriched and mostly devoid of macrophage contamination
- macrophage contamination and MSC appearance (images) ([2]; CB, 1, 5 and 10 μM): have reduced numbers of contaminating macrophages; also recorded: a noticeable decrease in macrophages was noticed
- actual increase in BM-MSCs (CD45−/CD29+/Sca1+) vs control ([3]; BM-MSC, 2.5 uM GW2580): 0.25 fold
- increase in number of CD45−/CD29+/Sca1+ MSCs vs control ([3]; BM-MSC, 2.5 uM GW2580): 26%
- Actual number of cells, CD45− [3, 9]: 665,331
- Actual number of cells, CD45−/CD29+/Scal+ [3, 9]: 639,450
- CD45−, Percent (Flow Cytometry) [3, 9]: 70.48%
- total cells [3, 9]: 9.44E+05
- CD45−/CD29+/Scal+, Percent (Flow Cytometry) ([3]; BM-MSCs, 2.5 uM GW2580, 14 days during P0, out of CD45− gate): 96.11%
- adipogenic and osteogenic differentiation vs control-expanded cultures [4]: differentiated equally well
- overall minimal increase in number of MSC colonies vs control ([5]; CB-MSC, 1 or 2.5 uM, three assays): ≥ 20%
- % increase in number of MSC colonies vs control [5, 10]: 51%
- Number of MSC colonies [5, 10]: 77
- % increase in number of MSC colonies vs control [5, 11]: 30%
- Number of MSC colonies [5, 11]: 133
- % increase in number of MSC colonies vs control [5, 12]: 70%
- Number of MSC colonies [5, 12]: 46
- % increase in number of MSC colonies vs control [5, 13]: 42%
- Number of MSC colonies [5, 13]: 256
- % increase in number of MSC colonies vs control [5, 14]: 84%
- Number of MSC colonies [5, 14]: 83
- % increase in number of MSC colonies vs control [5, 15]: 25%
- Number of MSC colonies [5, 15]: 15
- % increase in number of MSC colonies vs control [5, 16]: 9%
- Number of MSC colonies [5, 16]: 36
- % increase in number of MSC colonies vs control [5, 17]: 49%
- Number of MSC colonies [5, 17]: 134
- % increase in number of MSC colonies vs control [5, 18]: 84%
- Number of MSC colonies [5, 18]: 147
- % increase in number of MSC colonies vs control [5, 19]: 25%
- Number of MSC colonies [5, 19]: 35
- % increase in number of MSC colonies vs control [5, 20]: 29%
- Number of MSC colonies [5, 20]: 89
- % increase in number of MSC colonies vs control [5, 21]: 53%
- Number of MSC colonies [5, 21]: 271
- increase in colony number compared to control cultures ([5]; CB-derived, 1 μM): at least 24%
- MSC CFU-F appearance (colony size, macrophages) ([5]; CB-derived, 1 μM, Toluidine blue): bigger in size and have a much reduced number of macrophages; also recorded: larger, enriched MSC CFU-F that are mostly free of macrophages
- number of CD45+/CD11b+/Sca1+ cells ([6]; BM, 1 μM): 55%
- number of CD45+ cells ([6]; BM, 1 μM (control 52%)): 45%
- CD11b+/Sca1+ hematopoietic monocytes, of CD45+ cells ([6]; BM, 1 μM P0 to P2): 44%
- CD11b+/Sca1− mature macrophages, of CD45+ cells ([6]; BM, 1 μM P0 to P2): 56%
- overall reduction in CD45+ cells ([6]; BM, 1 μM P0 to P2): 18%
- reduction in CD45+/CD11b+/Sca1+ monocyte differentiation into mature macrophage (increase in Sca1+ fraction vs control) ([6]; BM, 1 μM P0 to P2): 36%
- CD11b+/Sca1+ hematopoietic monocytes, of CD45+ cells ([6]; BM, 1 μM P0 to P3): 52%
- CD11b+/Sca1− mature macrophages, of CD45+ cells ([6]; BM, 1 μM P0 to P3): 41%
- overall reduction in CD45+ cells ([6]; BM, 1 μM P0 to P3): 64%
- reduction in CD45+/CD11b+/Sca1+ monocyte differentiation into macrophages (monocytes prevented from differentiating) ([6]; BM, 1 μM P0 to P3): > 50% and 52%
- reduction in CD45+/CD11b+/Sca1− mature macrophage differentiation ([6]; BM, 1 μM, at P3): > 50%
- number of CD45+/CD11b+/Sca1+ cells ([6]; BM, 5 μM): 40%
- number of CD45+ cells ([6]; BM, 5 μM (control 52%)): 33%
- number of CD45+/CD11b+/Sca1+ cells ([6]; BM, 10 μM): 34%
- number of CD45+ cells ([6]; BM, 10 μM (control 52%)): 28%
- CD45+/CD11b+ mature macrophages, of total viable cells ([6]; BM, P1, 1 μM): 60% and 62%
- reduction in macrophages vs control ([6]; BM, P1, 1 μM): 20%
- CD45+/CD11b+ mature macrophages, of viable cells ([6]; BM-derived cultures, 1 μM up to P2): < 1%
- adipogenic and osteogenic differentiation (Oil Red O, ALP/mineralization) ([7]; CB-MSC, 2.5 uM for 2 passages, plated at 4.0×10^4 cells/cm^2, 14 days): substantial adipogenic and osteogenic differentiation
- differentiation into osteogenic and adipogenic lineages vs control cultures ([7]; mouse CB-MSC exposed to GW2580 during expansion): stronger and more robust differentiation
- inhibition of CSF-1-dependent growth of mouse myeloid cells [8]: completely inhibited
